125 compounds from a melting point compilation (Tetko et al.) can be followed below.

In the case of `CC(=O)NCc1ccc(S(=O)(=O)NCC(=O)O)s1`, the melting point fell in the range of 192 to 194 °C.

Take `CC(C)CNC(=O)c1cc(Cl)ccc1N`: the melting point lay within 137 to 139 °C. Next, `CN1C(=O)C(=O)N(CC(=O)O)C1=O`: 191 to 193 °C; `O=C(Nc1ccc(F)cc1)N1CCC(=NO)CC1`: 183 to 185 °C. `COc1ncc(C)cc1N` came in with a melting point of 77 to 79 °C. `CS(=O)(=O)c1ccccc1Br` gave a melting point of 107 to 109 °C.

`Cc1cc(Br)cn2c3c(nc12)CCNC3` registered a melting point of 165 to 167 °C.

For the compound `N#CCn1cc(Br)cn1`, the melting point is 60 to 62 °C.

As for `COc1ccc(CCN2C(=O)NC(=O)C2=O)cc1`, the melting point was 179 to 181 °C. For `O=C1COc2cc(Br)c(S(=O)(=O)Cl)cc2N1` the value was 211 to 213 °C; for `COC(=O)c1sc2cccc(F)c2c1CBr`, 157 to 159 °C; for `COc1ccc2[nH]nc(N)c2c1`, 159 to 161 °C. For `O=Cc1ccc(-n2ccc(C(F)(F)F)n2)cc1` the value was 68 to 70 °C; for `CCOC(=O)Cc1ncccc1C(=O)O`, 128 to 130 °C; for `NS(=O)(=O)c1c[nH]c(C(=O)O)c1`, 229 to 231 °C.

As for `O=Cc1ccc(OCc2cccnc2)cc1`, the melting point lay in the range of 75 to 77 °C. Consider `Cn1nc(CC(=O)O)c2ccccc2c1=O`, for which the melting point fell in the range of 189 to 191 °C. Next, `COC(=O)c1cccc(-c2nc(CCl)cs2)c1`: 129 to 131 °C; `O=C(O)c1nccnc1-c1nc2ccccc2s1`: 188 to 190 °C; `CC(C)C(Br)C(=O)N1CCCCC1` (stereo not given): 61 to 63 °C. Next, `O=C(O)c1nccnc1Sc1ccccc1`: 154 to 156 °C; `Clc1ccc(SC2CCNCC2)cc1`: 41 to 43 °C; `NC(=O)c1nnn(-c2ccccc2)c1N`: 160 to 162 °C. Consider `CCOC(=O)C1CCCNC1=O` (stereo not given), for which the melting point lay within 80 to 82 °C. For `O=C(O)c1nn(-c2ccc(Br)cc2)c2c1CCCC2` the value was 232 to 234 °C; for `Cc1cc(C)cc(C(=O)N2CCCC(C(=O)O)C2)c1` (stereo not given), 188 to 190 °C; for `Nc1nc2ccccc2n2nnnc12`, 289 to 291 °C. The compound `O=C(O)C=CC(=O)NCc1cccnc1` displayed a melting point of 92 to 94 °C. In turn, `O=Cc1coc2ccc(F)cc2c1=O` gave a melting point of 95 to 97 °C. For `Nc1ccc(Cl)c(S(=O)(=O)N2CCCC2)c1` the value was 116 to 118 °C; for `Nc1cc(Cl)ccc1-n1ccnc1`, 154 to 156 °C; for `NS(=O)(=O)c1ccc(CN=C=S)cc1`, 159 to 161 °C. As for `Nc1cnn(-c2ccccc2F)c1`, the melting point is 59 to 61 °C.

`COC(=O)c1cc(S(N)(=O)=O)cnc1Cl` came in with a melting point of 60 to 62 °C. `CC(NC(=O)CC1CCCC1)C(=O)O` (stereo not given) showed a melting point of 139 to 141 °C. `Brc1ccc(NCc2ccccn2)cc1` showed a melting point of 76 to 78 °C.

In turn, `NC1CCN(c2ccc(Cl)cc2)C1=O` (stereo not given) had a melting point of 80 to 82 °C. Next, `CC(C)(C)NS(=O)(=O)Cc1cccc(N)c1`: 101 to 103 °C; `Nc1nc2cc(F)c(F)cc2[nH]1`: 144 to 146 °C.

Turning to `N#Cc1cc(Cl)nc2ccccc12`, the melting point was 153 to 155 °C. `Cc1nccn1-c1cc(C#N)ccn1` registered a melting point of 194 to 196 °C. The compound `CCN1C(=C2C=NN(C)C2=N)Nc2ccccc21` had a melting point of 111 to 113 °C.

For `COc1cc(C(=O)O)ccc1OCc1ccc(Br)s1`, the melting point was 179 to 181 °C.

In turn, `Cc1ccc(-n2cccc2)c(C(=O)O)c1` registered a melting point of 126 to 128 °C. The compound `O=C(O)c1cc(F)c(F)cc1I` had a melting point of 127 to 129 °C. `CC(C)(C)OC(=O)N1CC(OCCC(=O)O)C1` yielded a melting point of 52 to 54 °C. For `Cc1cc(C(=O)O)nn1-c1ccc(F)cc1F` the value was 221 to 223 °C; for `CCC(=O)N1CCCC(C(=O)O)C1` (stereo not given), 117 to 119 °C.

`CC(=O)c1cccc([N+](=O)[O-])c1C` showed a melting point of 49 to 51 °C.

On to `Nc1ccc(-n2cnc3ccccc32)cc1`, for which the melting point is 104 to 106 °C.

Compound `CNC(=O)c1cccc(CCC(=O)O)c1` registered a melting point of 119 to 121 °C. `c1cc2c(cn1)NCCN2` showed a melting point of 135 to 137 °C. Next, `Fc1ccc(-c2nnc(CCl)o2)cc1`: 138 to 140 °C; `COc1ccccc1C(=O)NC(=O)CCl`: 118 to 120 °C.

Compound `Cc1cc(Cl)c(C(=O)O)cc1C` displayed a melting point of 180 to 182 °C.

On to `Cn1c(=O)c2cc(S(=O)(=O)Cl)cnc2n(C)c1=O`, for which the melting point lay within 171 to 173 °C. As for `NCC(O)CN1CCOCC1` (stereo not given), the melting point was 36 to 40 °C. As to `O=C(O)CNS(=O)(=O)c1cccc2c1N=S=N2`, the melting point was in the range of 270 to 272 °C. Compound `Cn1cc(-c2csc(N)n2)cn1` displayed a melting point of 230 to 232 °C. For `CN1CCN(c2ccc(F)cc2N)CC1` the value was 126 to 128 °C. For `C=CCNC(=O)NC(=O)C(C)Cl` (stereo not given) the value was 68 to 70 °C; for `CC(C)C(NC(=O)Cc1ccccc1)C(=O)O` (stereo not given), 110 to 112 °C; for `Cc1nc(-c2c[nH]c(C(=O)O)c2)cs1`, 209 to 211 °C. Compound `COc1cc(OC)cc(-c2cc(N)on2)c1` yielded a melting point of 116 to 118 °C. Take `OCc1ncc(-c2ccc(F)cc2)o1`: the melting point fell in the range of 81 to 83 °C. With `O=S(=O)(Cl)c1ccc2oc3ccccc3c2c1`, the melting point fell in the range of 134 to 136 °C. In turn, `Nc1cc(F)c(F)cc1N` showed a melting point of 126 to 130 °C.

Consider `CC(C)CC(NS(C)(=O)=O)C(=O)O` (stereo not given), for which the melting point fell in the range of 67 to 69 °C. Turning to `O=C(O)C(CS(=O)(=O)c1ccccc1)N1CCOCC1` (stereo not given), the melting point lay within 190 to 192 °C. In turn, `CC(C)NS(=O)(=O)c1cc(C(=O)O)ccc1F` came in with a melting point of 168 to 170 °C. Next, `NC(=S)Nc1ccc2c(c1)CCC2`: 179 to 181 °C; `O=C(CCl)Nc1ncc(Cc2ccc(F)cc2)s1`: 149 to 151 °C. `Nc1ncc(-c2cccc(Cl)c2)s1` displayed a melting point of 143 to 145 °C.

Consider `CCOC(=O)C(C)NC(=O)c1ccc(N)cc1` (stereo not given), for which the melting point is 127 to 129 °C. Next, `Cc1nc(C(=O)O)nn1-c1ccccc1C(C)C`: 175 to 177 °C; `CNS(=O)(=O)c1cc(C(=O)O)ccc1Cl`: 226 to 228 °C; `COC(=O)c1ccc2[nH]cc(C=O)c2c1`: 230 to 232 °C. For `O=C(O)c1ncoc1C1CCCO1` (stereo not given) the value was 125 to 127 °C. Turning to `CS(=O)(=O)NC1(C(=O)O)CCCCC1`, the melting point fell in the range of 114 to 116 °C. Next, `O=C(O)C=Cc1ccc(S(=O)(=O)Nc2cccc(C(F)(F)F)c2)cc1`: 224 to 226 °C. `Cc1cnc(C(=O)O)c(C)c1` had a melting point of 150 to 152 °C. For `CC(N)(C(N)=O)c1cccc(Cl)c1` (stereo not given) the value was 103 to 105 °C; for `Cn1nc(SCC(=O)O)c(=O)n(C)c1=O`, 185 to 187 °C; for `N#CCc1nc(-c2c(F)cccc2F)cs1`, 75 to 77 °C. Next, `Cc1cccn2cc(-c3ccc(N)cc3)nc12`: 161 to 163 °C; `O=C(O)C1CSc2ccccc21` (stereo not given): 95 to 97 °C.

As for `O=C(O)C1CCCN1S(=O)(=O)c1ccc(Br)cc1` (stereo not given), the melting point is 103 to 105 °C. For `Cc1ccnc2nc(C(=O)O)nn12` the value was 240 to 242 °C; for `OCCCOc1cccc2ccccc12`, 65 to 67 °C.

`CC1NC(=O)c2ccccc2NC1=O` (stereo not given) had a melting point of 337 to 339 °C. For `Nc1ccc(NC(=O)Oc2ccccc2)cc1` the value was 135 to 137 °C. Next, `COc1ccc(C(=O)O)nn1`: 139 to 141 °C.

On to `ONCc1ccc(F)cc1`, for which the melting point lay in the range of 59 to 61 °C.

On to `Oc1cccc(-n2ccnc2)c1`, for which the melting point is 172 to 174 °C. Next, `Nc1[nH]ncc1CCCO`: 88 to 90 °C. As for `COc1ccc(F)cc1CCl`, the melting point was in the range of 52 to 53 °C. Regarding `N#Cc1ccc2ncccc2c1`, the melting point is 135 to 137 °C. `O=C(O)Cc1csc(-c2cccc(Cl)c2)n1` came in with a melting point of 104 to 109 °C. Next, `CCCCN(C)S(=O)(=O)c1ccc(N)cc1`: 76 to 80 °C; `O=C(Cc1ccccc1Cl)NCCCO`: 77 to 79 °C. In turn, `NNc1ccc(S(=O)(=O)N2CCCCC2)cn1` displayed a melting point of 186 to 188 °C. For `Cc1ccc(-c2csc(Cl)n2)cc1`, the melting point is 93 to 95 °C. Next, `Cc1cnn(CC(=O)O)c1`: 172 to 174 °C; `CS(=O)(=O)CCCC(=O)O`: 78 to 80 °C. As to `Cc1cc(C)c(C#N)c(=S)[nH]1`, the melting point lay within 255 to 257 °C. Next, `Nc1nnc(C=Cc2ccco2)s1`: 218 to 220 °C; `CC1NC(=O)c2ccccc2N(C)C1=O` (stereo not given): 250 to 252 °C. Turning to `CN(C)C(=O)c1cccc(Br)c1`, the melting point was in the range of 52 to 54 °C. Next, `O=C(O)CCc1cc(Cl)ccc1Br`: 83 to 85 °C.

`CNS(=O)(=O)c1cc(Br)cnc1N` displayed a melting point of 179 to 181 °C. For `N#Cc1cccn2ccnc12` the value was 169 to 171 °C; for `CCc1cnc(N)s1`, 54 to 56 °C.

Compound `Cc1cc(Br)ccc1CC(=O)O` displayed a melting point of 111 to 113 °C.

Consider `[N-]=[N+]=Nc1ccc(I)cc1`, for which the melting point is 33 to 35 °C.

On to `CSc1nsc(N)n1`, for which the melting point fell in the range of 146 to 148 °C. As to `CCNc1ccc(Br)cn1`, the melting point is 67 to 69 °C. Next, `Cc1nc(-c2ccc(I)cc2)n[nH]1`: 197 to 199 °C. Compound `O=C(O)CCc1ccncc1` yielded a melting point of 209 to 211 °C. Take `Nc1nc2ccc(S(N)(=O)=O)cc2s1`: the melting point lay within 259 to 261 °C. On to `O=C(Nc1cccc(Br)c1)c1ccccc1`, for which the melting point is 136 to 138 °C. As to `Nc1ccc(Br)c(I)c1`, the melting point was 74 to 76 °C. `O=C1C=CC(=O)N1c1cccc(O)c1` came in with a melting point of 113 to 115 °C. Take `O=C(O)c1ccc(-c2ccc(Cl)cc2)s1`: the melting point fell in the range of 260 to 262 °C. For `CC(=O)Nc1cc(C)nn1CCC#N` the value was 159 to 161 °C; for `Cc1ccc2nc(C3CC3)cc(C(=O)O)c2c1`, 207 to 209 °C.
